Data taken from US10150793B2, “Antagonists of CB1 receptor” (INSERM (Institut National de la Santé et de la Recherche …, priority 2011, dated 2018).

What was measured:
CHO cells = experiment: Study of metabolism in vitro in CHO cells, steroids in culture medium by GC/MS; details: CHO cells
Experimental: Plasma, brain and culture medium levels of pregnenolone (5-Pregnen-3β-ol-20-one), allopregnanolone (3α-hydroxy-5α-pregnan-20-one), epiallopregnanolone (3β-hydroxy-5α-pregnan-ol-20-one), testosterone, and 5α dihydrotestosterone were determined by GC/MS according to the of estraction, purification and quantification protocol described previously (George O, et al., Biol Psychiatry. 2010 68: 956-63, Vallee M, et al., Anal Biochem. 2000, 287:153-66).
The CHO-K1 cell line (#CCL-61, ATCC-LGC, USA) derived as a subclone from the parental CHO cell line initiated from a biopsy of an adult Chinese hamster ovary was used. The CHO-K1 cells were seeded on 24-well plates (#353047, BD Biosciences, USA) to the appropriate concentration (25×10^4 cells/well) in fresh, antibiotic-free medium constituted by 90% DMEM-Glutamax; (#31966-21, Life technologies, USA) and 10% Fetal Bovine Serum (#10270-106, Life technologies, USA).
In this example the inventors further analyzed the metabolism of pregnenolone derivatives using an in vitro test in CHO cells. These cells derived from the ovary have all the enzymes needed to metabolize pregnenolone in down stream steroids.

CB1 receptor [1] = target: T1, CB1 receptor (Mus musculus, UniProt P47746); experiment: THC-induced cannabinoid tetrad (body temperature, locomotor activity, catalepsy, analgesia); format: in vivo, mice; design: tissue Charles River Laboratories (France) (animals); host or cells: living mice, whole animal; details: mice; THC 10 mg/kg; compounds 6 mg/kg 15-30 min before THC
T1 sequence (P47746 whole entry): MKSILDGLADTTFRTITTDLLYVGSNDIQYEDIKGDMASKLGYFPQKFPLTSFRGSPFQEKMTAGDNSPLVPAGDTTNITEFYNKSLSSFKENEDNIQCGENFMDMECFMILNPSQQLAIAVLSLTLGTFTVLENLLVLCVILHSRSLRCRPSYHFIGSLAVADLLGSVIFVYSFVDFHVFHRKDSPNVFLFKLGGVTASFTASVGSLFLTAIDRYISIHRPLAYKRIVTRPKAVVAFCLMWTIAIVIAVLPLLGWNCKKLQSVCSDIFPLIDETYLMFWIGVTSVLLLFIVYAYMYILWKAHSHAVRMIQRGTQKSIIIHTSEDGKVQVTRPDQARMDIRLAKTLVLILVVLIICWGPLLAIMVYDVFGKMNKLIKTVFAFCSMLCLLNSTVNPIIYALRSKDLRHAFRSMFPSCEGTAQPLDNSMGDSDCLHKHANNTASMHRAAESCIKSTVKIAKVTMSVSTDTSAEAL

CB1 receptor [2] = target: T1, CB1 receptor; experiment: THC-induced increase in food intake in mice; format: in vivo; design: tissue Charles River Laboratories (France) (animals); host or cells: living mice, whole animal; details: mice; THC between 0.5 and 1 mg/kg; compounds between 2 and 4 mg/kg 30 min before THC
Experimental: Food intake was evaluated by measuring consumption of food in the home cages of the animals. For each animal, 50-100 g of standard laboratory chow (U.A.R., France) was placed in the cleaned home cage. The remaining amount of food was weighted 1 h later and the amount of food consumed calculated.
(§1) Other pregnenolone derivatives (Table 4) for which the metabolism in downstream active steroids was reduced were tested for their ability to inhibit: 1. effects of the THC-induced cannabinoid tetrade (decrease in body temperature and in locomotor activity, (THC 10 mg/kg, compounds 6 mg/kg 15-30 min before THC) that is recognized as a sound method to evaluate the activation of the CB1 receptor; 2. THC-induced increase in food intake a typical effect of CB1 activation (THC between 0.5 and 1 mg/kg, compounds between 2 and 4 mg/kg 30 min before THC); 3. the increase in TNFalpha induced by LPS, another effects typical of CB1 […] (compounds 6 mg/kg 15 min before LPS). For each compound and each test independent groups of animals were used (at least n=6 per compound/per test).

TNF-α = experiment: Increase in plasma TNF-alpha induced by LPS; format: in vivo, mice; details: Mus musculus; mice; compounds 6 mg/kg 15 min before LPS
Experimental: Trunk blood was collected and centrifuged at 3000 rpm for 15 min at 4° C. Plasma was stored at −80° C. until measurement of TNFα was carried out. Plasma TNFα levels were assessed using an ELISA kit, following the manufacturer's instructions (Fisher Scientific, Catalog #E6473C).
In this example the inventors further analyzed the ability of pregnenolone to inhibit the effects of CB1 activation in the context of inflammation and fibrosis. […] TNF-alpha is one of the cellular responses to inflammatory stimuli more involved in promoting fibrosis.
as §1

GABA-A receptors = experiment: GABA-A receptors-mediated mIPSC in nucleus accumbens principal neurons; format: cell-based, mouse
Experimental: GABA-A receptors-mediated currents: mIPSC were recorded in the presence of the AMPAR and NMDAR antagonists (DNQX 20 μM and AP-5 50 μM, respectably). mEPSC-mIPSC analysis: Typically, after breaking in, cells were left to equilibrate for 20 minutes and the subsequent 10 minutes recording of mEPSC-mIPSC was used to analysis. mEPSC-mIPSC were detected using a template generated from averaging several typical events (Clampfit 10, Molecular Devices). The template was slid along the data trace one point at a time. At each position, the template was optimally scaled and offset to fit the data. A lower-amplitude threshold of 7 pA and 10 pA were applied for mEPSC and mIPSC, respectably, equivalent to 2.5SD of baseline noise. For each cell, the kinetics of mEPSC-mIPSC was measured from the average event using Clampfit 10. To estimate decay times, a two exponentials curve was fitted between 5 and 95% of the decay phase of the current given by the following equation: y(t)=A1·e^(−t/τ1)+A2·e^(−t/τ2), where A is the amplitude, t is the time and τ is the decay time constant. The weighted tau was then calculated.
In order to evaluate the effect of pregnenolone on the function of post-synaptic GABA we recorded mIPSC and compared its amplitude and decay time between groups. We observed that mIPSC amplitude and decay time were similar between controls (amplitude: 17.9±0.8 pA; decay time: 11.1±0.3 ms) and slices pre-treated with pregnenolone (100 nM and 1 μM, respectively; amplitude: 17.3±0.4 pA, 15.9±0.4 pA; decay time: 10.2±0.4 ms, 10.8±0.5 ms).

Structure (SMILES) | metabolism in downstream active steroids (Reduced metabolism / Metabolized) (CHO cells) | % Inhibition temperature decrease (CB1 receptor [1]) | % increase in motor activity (CB1 receptor [1]) | % Inhibition of THC-Induced food intake (CB1 receptor [2]) | inhibition in vivo at 6 mg/kg (TNF-α) | mIPSC amplitude (GABA-A receptors; slices pre-treated with 100 nM) | mIPSC decay time (GABA-A receptors; slices pre-treated with 100 nM) | mIPSC amplitude (GABA-A receptors; slices pre-treated with 1 μM) | mIPSC decay time (GABA-A receptors; slices pre-treated with 1 μM)
C[C@@H](O)[C@H]1CCC2C3CCC4=C[C@@H](O)CC[C@]4(C)C3CC[C@@]21C (stereo in doubt) [Compound 12, 4-Pregnen-3β,20α-diol] | Reduced metabolism | 42%, P < 0.004 | 100%, P < 0.16 | ≥100%, P < 0.001 | 81% |  |  |  | 
C[C@H](O)[C@@]1(O)CCC2C3CCC4=CC(=O)CC[C@]4(C)C3CC[C@@]21C (stereo in doubt) [Compound 14, 4-Pregnen-17α,20α-diol-3-one] | Reduced metabolism | 45%, P < 0.001 | 277%, P < 0.004 | 70%, P < 0.06 | 65% |  |  |  | 
C[C@@H](O)[C@H]1CCC2C3CCC4=CC(=O)CC[C@]4(C)C3CC[C@@]21C (stereo in doubt) [Compound 18, 4-Pregnen-20α-ol-3-one] | Reduced metabolism | 25%, P < 0.04 | 146%, P < 0.1 | 30%, P > 0.25 | 65% |  |  |  | 
C[C@H](O)[C@H]1CCC2C3CC=C4C[C@@H](O)CC[C@]4(C)C3CC[C@@]21C (stereo partly drawn) [Compound 20, 5-Pregnen-3β,20α-diol] | Reduced metabolism | 34%, P < 0.04 | 123%, P < 0.04 | 85%, P < 0.03 | 65% |  |  |  | 
CC[C@]1(C(C)=O)CCC2C3CC=C4C[C@@H](O)CC[C@]4(C)C3CC[C@@]21C (stereo partly drawn) [Compound 32, 17α-Ethylpregnenolone] | Reduced metabolism | 12%, P > 0.25 | −2%, P > 0.25 |  | 64% |  |  |  | 
CO[C@H]1CC[C@@]2(C)C(=CCC3C2CC[C@@]2(C)C3CC[C@]2(C)C(C)=O)C1 (stereo partly drawn) [Compound 35, 3β-Methoxy-17α-methylpregnenolone] | Reduced metabolism | 33%, P < 0.01 | −32%, P > 0.24 |  | 57% |  |  |  | 
COC1(C(C)=O)CCC2C3CC=C4C[C@@H](O)CC[C@]4(C)C3CC[C@@]21C (some centres unmarked) [Compound 36, 17-Methoxypregnenolone] | Reduced metabolism | 54%, P < 0.001 | 326%, P < 0.001 | ≥100%, P < 0.003 | 37% |  |  |  | 
CC(=O)C1=CC[C@H]2[C@@H]3CC=C4CCCC[C@]4(C)[C@H]3CC[C@]12C [Compound 39, 5,16-Pregnadien-20-one] | Reduced metabolism | 56%, P < 0.001 | 309%, P < 0.001 | ≥100%, P < 0.02 | 46% |  |  |  | 
CC(=O)[C@@]1(C)CCC2C3CCC4=CC(=O)CC[C@]4(C)C3CC[C@@]21C (stereo partly drawn) [Compound 40, 17α-Methylprogesterone] | Reduced metabolism | 18%, P < 0.02 | 57%, P < 0.21 | 74%, P < 0.07 | 57% |  |  |  | 
CC(=O)[C@H]1CCC2C3CC=C4C[C@@H](OCc5ccccc5)CC[C@]4(C)C3CC[C@@]21C (stereo partly drawn) [Compound 41, 3β-Benzyloxypregnenolone] | Reduced metabolism | 38%, P < 0.001 | 106%, P < 0.03 |  | 62% |  |  |  | 
CC(=O)[C@H]1CCC2C3CC[C@@H]4C[C@@H](O)CC[C@]4(C)C3CC[C@@]21C (stereo partly drawn) [Compound 46, 5α-Pregnan-3α-ol-20-one (Allopregnanolone), reference compound] | Metabolized |  |  |  |  | 15.9±0.5 pA | 13.6 ± 0.7 ms | 20.2±1.2 pA | 22.7 ± 2.3 ms
CC(=O)[C@H]1CC[C@H]2[C@@H]3CC[C@@H]4CC(=O)CC[C@]4(C)[C@H]3CC[C@]12C [Compound 60, 5β-Pregnan-3,20-dione] |  | 66%, P < 0.0001 | 70%, P < 0.05 | ≥100%, P < 0.002 | 77% |  |  |  | 
CC(=O)[C@@]1(Cc2ccccc2)CCC2C3CC=C4C[C@@H](O)CC[C@]4(C)C3CC[C@@]21C (stereo partly drawn) [Compound 65, 17α-Benzylpregnenolone] | Reduced metabolism | 53%, P < 0.003 | 142%, P < 0.03 | ≥100%, P < 0.001 | 65% |  |  |  | 
CC(=O)[C@H]1CCC2C3CC=C4CC(N=[N+]=[N-])CC[C@]4(C)C3CC[C@@]21C (some centres unmarked) [Compound 72, 3-Azidopregnenolone] | Reduced metabolism | 34%, P < 0.05 | 145%, P < 0.05 | ≥100%, P < 0.001 | 61% |  |  |  | 
CC(=O)[C@H]1CCC2C3CC[C@@H]4C[C@@H](O)CC[C@]4(C)C3CC[C@@]21C (stereo partly drawn) [Compound 77, 5β-Pregnan-3β-ol-20-one (Epipregnanolone)] | Reduced metabolism | 70%, P < 0.0001 | 177%, P < 0.02 | ≥100%, P < 0.01 | 76% |  |  |  | 
